Here are results for 4 compounds from patent publication US11331283B2, “Pharmaceutical compositions comprising cinacalcet hydrochloride and one or more binders” (UNICHEM LABORATORIES LTD, priority 2017, dated 2022).

Bounds are passed on as bounds.

This data set is described as follows: Particle size distribution of micronized cinacalcet hydrochloride by Malvern Mastersizer. Type of data set: physicochemical. The note with it: particle size after jet milling. Here is the method:
Micronization of cinacalcet hydrochloride was carried out by Jet Milling. Particle size of micronized cinacalcet hydrochloride was measured with Malvern Mastersizer.
For `C[C@@H](NCCCc1cccc(C(F)(F)F)c1)c1cccc2ccccc12.Cl` [Batch No 60002, N-[1-(R)-(−)-(1-naphthyl)ethyl]-3-[3(trifluoromethyl)phenyl]-1-aminopropane hydrochloride], the D10 is given as 4.06 μm, the D50 is listed as 9.58 μm and the D90 is 18.8 μm.
For `C[C@@H](NCCCc1cccc(C(F)(F)F)c1)c1cccc2ccccc12.Cl` [Batch No 70001, N-[1-(R)-(−)-(1-naphthyl)ethyl]-3-[3(trifluoromethyl)phenyl]-1-aminopropane hydrochloride], in that order: 2.66 μm, 6.55 μm and 13.4 μm.
For the compound `C[C@@H](NCCCc1cccc(C(F)(F)F)c1)c1cccc2ccccc12.Cl` [Batch No 70002, N-[1-(R)-(−)-(1-naphthyl)ethyl]-3-[3(trifluoromethyl)phenyl]-1-aminopropane hydrochloride], the D10 is 2.35 μm, the D50 is 6.81 μm and the D90 is 15.4 μm.
In the same order, the values of `C[C@@H](NCCCc1cccc(C(F)(F)F)c1)c1cccc2ccccc12.Cl` [Micronized cinacalcet hydrochloride, N-[1-(R)-(−)-(1-naphthyl)ethyl]-3-[3(trifluoromethyl)phenyl]-1-aminopropane hydrochloride] are at most 5 μm, at most 10 μm and at most 20 μm.
